We go through 25 molecules from patent publication US20240115705A1, “Regulation of Butyrophilin subfamily 3 member A1 (BTN3A1, CD277)” (The J. Gladstone Institutes, a testamentary trust …, priority 2021, published 2024).

Common to all, as to assay type: cell-based, human
For data set [1], the system named is BTN3A. Kind of data set: Inhibitor dose response, surface BTN3A by flow cytometry in WT Daudi-Cas9 cells. The settings on record: 72 hours, complete RPMI, vs vehicle. On the procedure: Daudi-Cas9 cells (180 μL) were seeded at 275,000 cells/mL in cRPMI in round-bottom 96-well plates. Twenty μL of zoledronate, rotenone (MedChemExpress), oligomycin A (Neta Scientific), FCCP (MedChemExpress), antimycin A (Neta Scientific), AICAR (Sigma), 2-DG (Sigma), Compound 991 (Selleck Chemical), A-769662 (Sigma), ethanol (vehicle), or DMSO (vehicle, at dilutions matching the treatment) at various concentrations were added to the cells. Plate edge wells were filled with 200 μL of sterile water or PBS. The cells were grown at 37° C. for 72 hours, and stained with APC-conjugated anti-human CD277 antibody (clone BT3.1, 1:50 dilution)(Miltenyi Biotec) and 7-AAD (1:150 dilution) (Tonbo). The cells were then analyzed on the Attune NxT flow cytometer.

The subject of data set [2] is Daudi-Cas9 cells. Kind of data set: γδ TCR tetramer staining (G115 Vγ9Vδ2 TCR clone) of Daudi-Cas9 cells. As to conditions: WT Daudi-Cas9 cells, 0.5 mM, 72 hours. An excerpt: The G115 Vγ9Vδ2 TCR clone tetramer was generated using the following methods. The G115 γ-[…] chain sequence (Davodeau et al. J. Immunol. 151, 1214-1223 (1993)) was cloned into the pAcGP67A vector with a C-terminal acidic zipper, and the G115 δ-chain sequence (Davodeau et al. (1993)) as cloned into the pAcGP67A vector with a C-terminal AviTag followed by a basic zipper. Zippers stabilized the TCR complex. The TCR was expressed in the High Five baculovirus insect-cell expression system and purified via affinity chromatography over a Ni-NTA column. TCRs were biotinylated and biotinylation was confirmed using a TrapAvidin SDS-PAGE assay. The G115 TCR was then further purified using size-exclusion chromatography (Superdex200 100/300 GL column, GE Healthcare) and purity was confirmed via SDS-PAGE. Tetramers were generated by incubating biotinylated TCR with streptavidin conjugated to the PE fluorophore.
Daudi-Cas9 KO cells were analyzed 13 and 14 days post-lentiviral transduction. WT Daudi-Cas9 cells were analyzed after being cultured for 72 hours with 0.5 mM AICAR, 80 μM Compound 991, DMSO (vehicle control at the concentration matching Compound 991), or nothing. […] Stained cells were analyzed on the Attune NxT flow cytometer.

Data set [3] has as its system BTN3A. In words: Compound C dose response in combination with AICAR or OXPHOS inhibition, surface BTN3A. On the set-up: BTN3A levels vs vehicle control: dose or concentration left out as unconfirmed. On the procedure: Daudi-Cas9 cells (170 μL) were seeded at 292,000 cells/mL in cRPMI in round-bottom 96-well plates. Ten μL of Compound C (Abcam) were added to all the cells at various concentrations. At indicated concentrations, 20 μL of rotenone, oligomycin A, FCCP, 2-DG, AICAR, or cRPMI (control) were added to the wells that received Compound C. Ten μL of DMSO at dilutions matching Compound C and 20 μL of cRPMI were added to the DMSO-only vehicle control wells. Plate edge wells were filled with 200 μL of sterile water or PBS. The cells were grown at 37° C. for 72 hours, stained with APC-conjugated anti-human CD277 antibody (clone BT3.1, 1:50 dilution) (Miltenyi Biotec) and 7-AAD (1:150 dilution) (Tonbo), and analyzed on the Attune NxT flow cytometer.

For data set [4], the system named is BTN3A. In words: mTOR/ISR compound treatment, surface BTN3A by flow cytometry in AAVS1 and PPAT KO Daudi-Cas9 cells. As to conditions: control KO (AAVS1) and purine biosynthesis KO (PPAT) Daudi-Cas9 cells, 10 μM, 72 hours. On the procedure:
Daudi-Cas9 AAVS1 and PPAT KO cells (190 μL) were seeded at 250,000 cells/mL in round-bottom 96-well plates. Cells received 10 μL of DMSO (vehicle) or one of the following compounds at a final concentration of 10 μM: sephin1 (APE×BIO), ISRIB (MedChemExpress), guanabenz acetate (MedChemExpress), Sal003 (MedChemExpress), salubrinal (MedChemExpress), raphin1 acetate (MedChemExpress), and rapamycin (MilliporeSigma). Edge wells were filled with 200 μL of sterile PBS or water. After being cultured for 72 hours, the cells were stained with APC-conjugated anti-human CD277 antibody (clone BT3.1, 1:50 dilution) (Miltenyi Biotec) and 7-AAD (1:150 dilution) (Tonbo), and analyzed on the Attune NxT flow cytometer.
A general note: A flow cytometer gives signals particle by particle.

Data set [5] relates to BTN3A1. Kind of data set: BTN3A expression genome-wide CRISPR knockout screen (FACS sort of surface BTN3A high/low cells).
In data set [6] the test system is Daudi-Cas9 cells. In words: Cancer-T cell co-culture genome-wide CRISPR knockout screen (Vγ9Vδ2 T cell killing). The settings on record: for score: MAGeCK sgRNA test, co-culture screen; for LFC: log-fold change of sgRNA, surviving cells after co-culture vs baseline; for LFC / treat mean: MAGeCK; for treat mean: sgRNA abundance in surviving Daudi-Cas9 KO cells after 24 hours Vγ9Vδ2 T cell co-culture with zoledronate; for high_in_treatment: sgRNA enriched (TRUE) or depleted (FALSE) after T cell co-culture.

Consider `O=CC[C@@H](O)[C@H](O)[C@H](O)CO` [2-DG, 2-deoxy-D-glucose], for which the “surface BTN3A (MFI)” value in data set [1] is “upregulated BTN3A levels”.
For the molecule `N#Cc1c(O)c2c(-c3ccc(-c4ccccc4O)cc3)csc2[nH]c1=O` [A-769662], the “surface BTN3A (MFI)” value in data set [1] was “Upregulation of surface BTN3A”.
On to `NC(=O)c1ncn([C@@H]2O[C@H](CO)[C@@H](O)[C@H]2O)c1N` [AICAR, N^1-(β-D-Ribofuranosyl)-5-aminoimidazole-4-carboxamide], for which the “increase in G115 Vγ9Vδ2 TCR tetramer staining” value in data set [2] was 40-80%. The “surface BTN3A (MFI)” value in data set [1] is “dramatic increase in surface BTN3A”.
In the case of `c1cc(-c2cnn3cc(-c4ccc(OCCN5CCCCC5)cc4)cnc23)ccn1` [Compound C], the “BTN3A upregulation caused by OXPHOS inhibition (rotenone, oligomycin, FCCP) or glycolysis inhibition (2-DG)” value in data set [3] (WT Daudi-Cas9 cells co-treated with Compound C, 72 hours) was “neutralized”. In addition, the “AICAR-induced BTN3A upregulation” value in data set [3] (WT Daudi-Cas9 cells co-treated with increasing amounts of Compound C and AICAR, 72 hours) is “decreased the AICAR-induced BTN3A upregulation”. The “BTN3A levels vs vehicle control” value in data set [3] (co-treated with AICAR, Compound C) is “falling well below those observed in the vehicle control”.
Regarding `N#CC(C#N)=NNc1ccc(OC(F)(F)F)cc1` [FCCP, carbonyl cyanide-4 (trifluoromethoxy) phenylhydrazone], in data set [1], the “surface BTN3A (MFI)” value was “highest BTN3A upregulation”.
Consider `O=C(COc1ccc(Cl)cc1)NC1CCC(NC(=O)COc2ccc(Cl)cc2)CC1` (stereo not shown) [ISRIB], for which, in data set [4], the BTN3A surface expression result is on record as “negligible effects”.
The same measure, in the same setting: the value for `O=C(/C=C/c1ccccc1)NC(NC(=S)Nc1ccc(Cl)cc1)C(Cl)(Cl)Cl` (stereo not shown) [Sal003] was “downregulation”.
`O=P(O)(O)C(O)(Cn1ccnc1)P(=O)(O)O` [ZOL, zoledronate]: the “surface BTN3A (MFI)” value in data set [1] was “substantial and dose-dependent increase in BTN3A”.
As for `N=C(N)N/N=C/c1c(Cl)cccc1Cl` [guanabenz], the BTN3A surface expression entry in data set [4] is given as “negligible effects”.
`CC[C@H]1/C=C/C=C/C[C@@H](C)[C@H](O)[C@@](C)(O)C(=O)[C@@H](C)[C@H](O)[C@@H](C)C(=O)[C@@H](C)[C@H](O)[C@@H](C)/C=C/C(=O)O[C@@H]2[C@H](C)[C@H](CC1)O[C@]1(CC[C@H](C)[C@H](C[C@@H](C)O)O1)[C@H]2C` [oligomycin A]: the “surface BTN3A (MFI)” value in data set [1] is given as “highest BTN3A upregulation”.
For `NC(N)=N/N=C/c1cccc(Cl)c1Cl` [raphin1], the BTN3A surface expression result in data set [4] is “negligible effects”.
For `C=C(C)[C@H]1Cc2c(ccc3c2O[C@@H]2COc4cc(OC)c(OC)cc4[C@@H]2C3=O)O1` [rotenone], the “surface BTN3A (MFI)” value in data set [1] was “BTN3A upregulation at two lower doses and a downregulation at one higher dose”.
On to `O=C(/C=C/c1ccccc1)NC(NC(=S)Nc1cccc2cccnc12)C(Cl)(Cl)Cl` (stereo not shown) [salubrinal], for which, in data set [4], the BTN3A surface expression entry was “negligible effects”.
With COQ2, the “Log2 Fold Change” value in data set [5] (Table 2, positive regulators of BTN3A1, gene knockout in Daudi-Cas9 cells, FACS sort on surface BTN3A1 (anti-BTN3A1 clone BT3.1), three replicates) amounted to 1.1343.
For RPIA, the “Log2 Fold Change” value in data set [5] (gene knockout in Daudi cells expressing Cas9, genome wide CRISPR knockout screen sorted on surface BTN3A1, Table 1 Negative Regulators of BTN3A1) is −1.4533.
As for “SUGT1_TTTGACTGATGAGTCCACT: library sgRNA targeting SUGT1 (listed as DNA, chemistry not fully specified)”, in data set [6], the score worked out at 7.7611, the LFC is given as 1.5136, the treat mean was determined as 3294.2 and the high_in_treatment entry was “TRUE”.
The corresponding values for “TRMT61A_CACGTCACCTTGGAGCCGA: library sgRNA targeting TRMT61A (listed as DNA, chemistry not fully specified)” are 6.3388, −3.6911, 242.28 and “FALSE”.
Consider “TSC2_AGCATCTCATACACACGCG: library sgRNA targeting TSC2 (listed as DNA, chemistry not fully specified)”, for which, in data set [6], the score is on record as 6.0284, the LFC is reported as −2.8218, the treat mean stood at 463.96 and the high_in_treatment result is reported as “FALSE”.
Turning to “TTC7A_CAGTACGTCATGCTCTCGG: library sgRNA targeting TTC7A (listed as DNA, chemistry not fully specified)”, in data set [6], the score was determined as 6.0307, the LFC is listed as −5.2629, the treat mean is given as 63.697 and the high_in_treatment result is listed as “FALSE”.
The corresponding values for “UGGT2_TTCGCAATCTTGGGATCAA: library sgRNA targeting UGGT2 (listed as DNA, chemistry not fully specified)” are 8.3503, 1.6772, 3035.8 and “TRUE”.
On the same counts, the results for “WDR59_TATCCGCACATCGCCGTCA: library sgRNA targeting WDR59 (as printed in the source, key not given here)” are 7.8204, −3.8469, 327.58 and “FALSE”.
On the same counts, the results for “WDR61_ATTCCATCTATGGCTCCAC: library sgRNA targeting WDR61 (as printed in the source, key not given here)” are 6.193, −9.1046, 2.9058 and “FALSE”.
As to “XPNPEP1_GGACTTGTAGGGATGCACC: library sgRNA targeting XPNPEP1 (as printed in the source, key not given here)”, in data set [6], the score turned out to be 6.7154, the LFC turned out to be 1.4173, the treat mean was 2841.3 and the high_in_treatment entry was “TRUE”.
In the case of “ZC3H12A_CCGTGACCTCCAAGGCGAG: library sgRNA targeting ZC3H12A (listed as DNA, chemistry not fully specified)”, in data set [6], the score is given as 6.507, the LFC is 1.2168, the treat mean came out at 3712.6 and the high_in_treatment entry was “TRUE”.
For antimycin A, the “surface BTN3A (MFI)” value in data set [1] is listed as “highest BTN3A upregulation”.
